According to ChEMBL document CHEMBL5647690, “Inhibition of demethylases by GSK-J1/J4” (Nature, 2014):

What was measured:
[1] = target: Lysine-specific demethylase 5B (Homo sapiens, UniProt Q9UGL1); assay: Inhibition of KDM5B (1 to 809 residues)(unknown origin) by Alphalisa assay
[2] = target: Lysine-specific demethylase 5C (Homo sapiens, UniProt P41229); assay: Inhibition of KDM5C (2 to 1560 residues)(unknown origin) by Alphalisa assay
[3] = target: Lysine-specific demethylase 3B (Homo sapiens, UniProt Q7LBC6); assay: Inhibition of KDM3B (842 to 1761 residues)(unknown origin) by Alphalisa assay
Sequence of Lysine-specific demethylase 3B (Q7LBC6 whole entry, the tested form may be a part): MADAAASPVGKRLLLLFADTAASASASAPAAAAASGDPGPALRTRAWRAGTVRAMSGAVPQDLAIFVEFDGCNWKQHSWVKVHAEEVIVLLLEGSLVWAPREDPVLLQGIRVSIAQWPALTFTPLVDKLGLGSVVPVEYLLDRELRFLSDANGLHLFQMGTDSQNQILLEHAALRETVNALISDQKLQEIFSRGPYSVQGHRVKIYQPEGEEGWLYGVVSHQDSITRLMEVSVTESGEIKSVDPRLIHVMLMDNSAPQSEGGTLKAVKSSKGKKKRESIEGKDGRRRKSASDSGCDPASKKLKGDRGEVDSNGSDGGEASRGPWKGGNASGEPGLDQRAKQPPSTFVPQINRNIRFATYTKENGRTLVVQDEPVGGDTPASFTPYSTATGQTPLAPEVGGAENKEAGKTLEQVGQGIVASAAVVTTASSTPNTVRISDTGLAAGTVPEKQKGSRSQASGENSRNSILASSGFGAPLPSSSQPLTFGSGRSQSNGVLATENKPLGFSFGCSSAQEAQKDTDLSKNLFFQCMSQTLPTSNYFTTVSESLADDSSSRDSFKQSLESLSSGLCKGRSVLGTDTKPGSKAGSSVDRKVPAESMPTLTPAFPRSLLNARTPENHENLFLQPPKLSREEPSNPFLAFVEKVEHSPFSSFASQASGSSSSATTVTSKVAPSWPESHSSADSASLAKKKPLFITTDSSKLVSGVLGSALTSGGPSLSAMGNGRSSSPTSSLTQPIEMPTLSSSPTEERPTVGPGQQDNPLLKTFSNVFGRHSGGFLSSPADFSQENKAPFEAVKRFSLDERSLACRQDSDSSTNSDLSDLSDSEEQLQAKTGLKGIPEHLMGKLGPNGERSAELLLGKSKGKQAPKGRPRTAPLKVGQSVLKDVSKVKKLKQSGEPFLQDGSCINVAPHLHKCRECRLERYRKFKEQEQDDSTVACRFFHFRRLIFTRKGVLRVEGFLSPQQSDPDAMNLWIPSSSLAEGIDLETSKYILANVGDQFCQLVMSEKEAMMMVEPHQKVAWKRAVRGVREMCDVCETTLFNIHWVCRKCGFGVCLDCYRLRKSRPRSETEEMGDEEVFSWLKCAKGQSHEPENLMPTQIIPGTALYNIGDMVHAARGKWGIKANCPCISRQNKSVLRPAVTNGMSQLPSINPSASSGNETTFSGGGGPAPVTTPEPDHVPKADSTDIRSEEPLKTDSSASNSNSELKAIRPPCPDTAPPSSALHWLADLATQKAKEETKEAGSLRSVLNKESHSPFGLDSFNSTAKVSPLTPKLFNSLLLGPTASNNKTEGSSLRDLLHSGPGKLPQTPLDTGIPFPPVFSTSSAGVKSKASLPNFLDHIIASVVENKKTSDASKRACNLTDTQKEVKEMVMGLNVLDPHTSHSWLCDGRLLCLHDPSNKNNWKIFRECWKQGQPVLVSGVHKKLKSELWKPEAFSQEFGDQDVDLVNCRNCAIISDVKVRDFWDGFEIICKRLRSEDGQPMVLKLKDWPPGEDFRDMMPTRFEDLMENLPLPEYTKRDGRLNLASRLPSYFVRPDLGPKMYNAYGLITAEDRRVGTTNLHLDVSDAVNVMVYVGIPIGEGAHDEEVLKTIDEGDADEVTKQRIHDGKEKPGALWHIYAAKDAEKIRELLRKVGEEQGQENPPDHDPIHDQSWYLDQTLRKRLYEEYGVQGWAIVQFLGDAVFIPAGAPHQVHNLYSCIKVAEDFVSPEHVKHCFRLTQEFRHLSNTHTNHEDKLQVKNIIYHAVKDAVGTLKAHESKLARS

[4] = target: T1, Lysine-specific demethylase 4C (Homo sapiens, UniProt Q9H3R0); assay: Inhibition of KDM4C (1 to 349 residues)(unknown origin) by Alphalisa assay
T1 sequence (Q9H3R0 whole entry): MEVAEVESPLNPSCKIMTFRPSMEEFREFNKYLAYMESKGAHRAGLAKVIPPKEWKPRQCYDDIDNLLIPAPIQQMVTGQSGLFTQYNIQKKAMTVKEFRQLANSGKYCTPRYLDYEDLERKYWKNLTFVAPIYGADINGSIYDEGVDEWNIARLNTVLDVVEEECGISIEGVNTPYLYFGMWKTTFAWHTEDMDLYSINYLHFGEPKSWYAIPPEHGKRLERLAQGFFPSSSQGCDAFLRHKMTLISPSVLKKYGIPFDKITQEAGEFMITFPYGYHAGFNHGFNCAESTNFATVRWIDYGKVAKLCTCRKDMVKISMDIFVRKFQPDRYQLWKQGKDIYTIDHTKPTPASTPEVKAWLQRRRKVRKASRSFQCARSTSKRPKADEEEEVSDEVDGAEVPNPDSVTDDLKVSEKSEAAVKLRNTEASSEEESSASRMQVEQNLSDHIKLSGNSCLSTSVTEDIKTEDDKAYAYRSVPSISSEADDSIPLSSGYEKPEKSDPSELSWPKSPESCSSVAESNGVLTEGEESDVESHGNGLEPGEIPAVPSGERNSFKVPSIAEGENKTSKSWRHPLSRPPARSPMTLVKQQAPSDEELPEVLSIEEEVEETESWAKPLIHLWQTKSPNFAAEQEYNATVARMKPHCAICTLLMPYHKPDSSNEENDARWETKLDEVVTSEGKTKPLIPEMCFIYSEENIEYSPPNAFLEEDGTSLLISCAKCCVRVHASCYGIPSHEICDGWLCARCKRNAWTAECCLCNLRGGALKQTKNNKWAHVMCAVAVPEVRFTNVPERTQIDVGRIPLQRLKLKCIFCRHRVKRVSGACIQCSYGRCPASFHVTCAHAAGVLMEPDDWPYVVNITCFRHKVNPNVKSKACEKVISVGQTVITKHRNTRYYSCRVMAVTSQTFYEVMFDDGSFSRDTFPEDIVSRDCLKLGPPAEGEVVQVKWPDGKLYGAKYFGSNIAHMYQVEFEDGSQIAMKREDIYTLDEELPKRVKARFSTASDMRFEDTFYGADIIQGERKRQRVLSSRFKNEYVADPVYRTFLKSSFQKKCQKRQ

[5] = target: T2, Lysine-specific demethylase 4A (Homo sapiens, UniProt O75164); assay: Inhibition of KDM4A (1 to 350 residues)(unknown origin) by Alphalisa assay
T2 sequence (O75164 whole entry): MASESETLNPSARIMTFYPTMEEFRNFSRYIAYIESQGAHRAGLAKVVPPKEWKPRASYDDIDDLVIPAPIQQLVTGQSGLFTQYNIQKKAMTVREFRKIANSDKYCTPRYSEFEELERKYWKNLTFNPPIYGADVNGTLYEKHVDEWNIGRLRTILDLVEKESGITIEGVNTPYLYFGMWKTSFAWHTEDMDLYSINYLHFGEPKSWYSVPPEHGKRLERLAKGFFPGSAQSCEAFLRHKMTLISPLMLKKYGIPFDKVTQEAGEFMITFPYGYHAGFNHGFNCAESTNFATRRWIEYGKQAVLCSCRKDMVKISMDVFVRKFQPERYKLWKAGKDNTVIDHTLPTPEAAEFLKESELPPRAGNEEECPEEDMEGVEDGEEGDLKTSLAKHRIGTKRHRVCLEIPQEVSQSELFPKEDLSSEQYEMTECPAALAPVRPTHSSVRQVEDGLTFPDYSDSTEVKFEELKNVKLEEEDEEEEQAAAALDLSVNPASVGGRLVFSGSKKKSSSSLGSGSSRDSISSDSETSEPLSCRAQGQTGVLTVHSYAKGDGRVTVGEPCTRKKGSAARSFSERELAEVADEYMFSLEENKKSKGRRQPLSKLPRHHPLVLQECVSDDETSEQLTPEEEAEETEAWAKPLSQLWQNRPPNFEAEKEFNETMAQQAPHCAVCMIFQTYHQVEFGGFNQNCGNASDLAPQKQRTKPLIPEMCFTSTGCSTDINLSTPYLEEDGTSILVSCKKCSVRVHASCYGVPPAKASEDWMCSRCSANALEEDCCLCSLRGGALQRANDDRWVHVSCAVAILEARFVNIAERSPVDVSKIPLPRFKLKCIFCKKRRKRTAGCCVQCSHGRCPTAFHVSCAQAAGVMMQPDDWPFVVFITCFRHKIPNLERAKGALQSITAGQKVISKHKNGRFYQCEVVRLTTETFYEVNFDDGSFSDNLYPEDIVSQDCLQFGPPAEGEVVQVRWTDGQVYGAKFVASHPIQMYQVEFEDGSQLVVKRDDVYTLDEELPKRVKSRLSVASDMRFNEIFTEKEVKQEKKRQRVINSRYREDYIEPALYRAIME

[6] = target: Histone lysine demethylase PHF8 (Homo sapiens, UniProt Q9UPP1); assay: Inhibition of PHF8 (1 to 1024 residues)(unknown origin) by Alphalisa assay
Sequence of Histone lysine demethylase PHF8 (Q9UPP1 whole entry, the tested form may be a part): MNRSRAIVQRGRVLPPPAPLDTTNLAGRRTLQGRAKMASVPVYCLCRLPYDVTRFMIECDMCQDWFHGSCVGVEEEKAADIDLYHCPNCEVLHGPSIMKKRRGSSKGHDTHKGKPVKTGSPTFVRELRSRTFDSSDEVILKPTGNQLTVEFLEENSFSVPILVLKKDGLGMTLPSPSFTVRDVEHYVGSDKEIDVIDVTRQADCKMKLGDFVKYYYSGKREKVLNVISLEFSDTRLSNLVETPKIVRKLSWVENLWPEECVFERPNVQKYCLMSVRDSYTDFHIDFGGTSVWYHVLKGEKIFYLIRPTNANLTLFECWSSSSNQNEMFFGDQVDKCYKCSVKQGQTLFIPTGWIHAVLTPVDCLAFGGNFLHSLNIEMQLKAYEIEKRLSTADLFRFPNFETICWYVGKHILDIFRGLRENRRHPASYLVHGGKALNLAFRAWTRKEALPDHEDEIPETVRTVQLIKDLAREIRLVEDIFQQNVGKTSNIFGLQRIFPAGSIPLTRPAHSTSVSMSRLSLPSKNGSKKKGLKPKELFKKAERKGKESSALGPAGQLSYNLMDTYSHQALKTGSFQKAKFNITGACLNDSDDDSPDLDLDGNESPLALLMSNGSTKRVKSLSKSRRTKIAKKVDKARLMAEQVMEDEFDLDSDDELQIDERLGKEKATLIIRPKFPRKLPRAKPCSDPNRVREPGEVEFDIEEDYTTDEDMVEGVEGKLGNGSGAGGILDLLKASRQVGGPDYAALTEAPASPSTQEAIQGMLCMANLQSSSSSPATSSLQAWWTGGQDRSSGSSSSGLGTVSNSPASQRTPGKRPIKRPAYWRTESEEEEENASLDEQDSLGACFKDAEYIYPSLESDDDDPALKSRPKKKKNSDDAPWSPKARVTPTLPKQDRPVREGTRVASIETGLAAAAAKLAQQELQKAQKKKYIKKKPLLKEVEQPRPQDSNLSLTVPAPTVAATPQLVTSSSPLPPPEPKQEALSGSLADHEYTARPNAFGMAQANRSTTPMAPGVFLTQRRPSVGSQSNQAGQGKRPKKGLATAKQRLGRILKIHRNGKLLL

Sequence of Lysine-specific demethylase 5B (Q9UGL1 whole entry, the tested form may be a part): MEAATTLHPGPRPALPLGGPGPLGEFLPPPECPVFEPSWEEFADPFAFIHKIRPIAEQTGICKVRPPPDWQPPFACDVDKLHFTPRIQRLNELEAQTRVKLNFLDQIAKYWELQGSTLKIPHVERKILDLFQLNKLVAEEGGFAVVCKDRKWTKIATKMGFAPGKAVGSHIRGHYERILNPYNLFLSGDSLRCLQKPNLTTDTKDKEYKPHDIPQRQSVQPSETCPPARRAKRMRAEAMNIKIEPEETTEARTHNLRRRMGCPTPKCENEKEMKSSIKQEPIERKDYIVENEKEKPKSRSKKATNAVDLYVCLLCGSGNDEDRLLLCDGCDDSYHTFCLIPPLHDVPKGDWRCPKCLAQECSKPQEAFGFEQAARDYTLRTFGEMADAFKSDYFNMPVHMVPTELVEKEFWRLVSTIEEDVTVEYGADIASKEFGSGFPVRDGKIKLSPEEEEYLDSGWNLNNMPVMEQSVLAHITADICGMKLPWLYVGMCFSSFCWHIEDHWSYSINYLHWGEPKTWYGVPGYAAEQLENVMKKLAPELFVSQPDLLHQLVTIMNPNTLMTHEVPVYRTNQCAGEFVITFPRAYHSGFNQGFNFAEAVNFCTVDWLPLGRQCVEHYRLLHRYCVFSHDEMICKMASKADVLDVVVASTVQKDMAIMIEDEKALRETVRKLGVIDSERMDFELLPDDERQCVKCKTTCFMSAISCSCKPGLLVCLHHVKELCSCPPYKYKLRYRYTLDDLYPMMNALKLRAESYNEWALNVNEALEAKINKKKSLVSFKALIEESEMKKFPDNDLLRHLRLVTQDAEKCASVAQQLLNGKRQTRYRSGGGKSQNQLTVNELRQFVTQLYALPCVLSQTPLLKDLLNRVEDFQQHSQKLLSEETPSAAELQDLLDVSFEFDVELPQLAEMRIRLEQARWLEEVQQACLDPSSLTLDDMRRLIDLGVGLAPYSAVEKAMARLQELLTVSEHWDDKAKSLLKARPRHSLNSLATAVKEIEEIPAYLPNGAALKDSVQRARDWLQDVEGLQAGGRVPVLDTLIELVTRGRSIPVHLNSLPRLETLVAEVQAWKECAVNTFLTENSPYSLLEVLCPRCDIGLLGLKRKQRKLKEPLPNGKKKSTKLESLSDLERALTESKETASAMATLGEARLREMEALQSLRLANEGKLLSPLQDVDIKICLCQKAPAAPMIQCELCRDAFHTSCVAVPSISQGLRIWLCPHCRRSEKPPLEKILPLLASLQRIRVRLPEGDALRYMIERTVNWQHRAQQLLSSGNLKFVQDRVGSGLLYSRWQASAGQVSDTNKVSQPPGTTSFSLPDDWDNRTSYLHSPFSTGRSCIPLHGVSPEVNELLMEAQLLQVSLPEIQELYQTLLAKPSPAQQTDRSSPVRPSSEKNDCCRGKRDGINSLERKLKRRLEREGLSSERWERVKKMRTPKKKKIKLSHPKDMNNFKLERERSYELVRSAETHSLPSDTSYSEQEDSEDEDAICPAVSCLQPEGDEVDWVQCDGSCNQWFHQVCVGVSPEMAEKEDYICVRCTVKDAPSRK

Structure (SMILES)	IC50 [1] [µM]	IC50 [2] [µM]	IC50 [3] [µM]	IC50 [4] [µM]	IC50 [5] [µM]	IC50 [6] [µM]
CCOC(=O)CCNc1cc(N2CCc3ccccc3CC2)nc(-c2ccccn2)n1	9.7	15	6.9	5.5	7.5	4.2
O=C(O)CCNc1cc(N2CCc3ccccc3CC2)nc(-c2ccccn2)n1	0.17	0.55	> 75	34	> 50	28
